Measurements as given in PubChem BioAssay (NCI).
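In this assay, cells in 96-well plates receive the compound at five concentrations for 48 hours. Endpoints are linearly interpolated between the surrounding concentrations. TGI marks complete inhibition of growth.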

Key:
Test in all cases: NCI anticancer screen, dose series, 48 h
A498 renal = tested on: A498 renal
HCT-116 colon = tested on: HCT-116 colon
HCT-15 colon = tested on: HCT-15 colon
MOLT-4 leukemia = tested on: MOLT-4 leukemia
OVCAR-3 ovarian = tested on: OVCAR-3 ovarian
OVCAR-8 ovarian = tested on: OVCAR-8 ovarian
SK-MEL-28 melanoma = tested on: SK-MEL-28 melanoma
SK-OV-3 ovarian = tested on: SK-OV-3 ovarian
T-47D breast = tested on: T-47D breast
TK-10 renal = tested on: TK-10 renal
SF-539 CNS = tested on: SF-539 CNS
MDA-N = tested on: MDA-N

SMILES	TGI (A498 renal)	TGI (HCT-116 colon)	TGI (HCT-15 colon)	TGI (MOLT-4 leukemia)	TGI (OVCAR-3 ovarian)	TGI (OVCAR-8 ovarian)	TGI (SK-MEL-28 melanoma)	TGI (SK-OV-3 ovarian)	TGI (T-47D breast)	TGI (TK-10 renal)	TGI (SF-539 CNS)	TGI (MDA-N)
O=C(/C=C1\N=C(c2ccccc2)N(c2ccc3c(c2)Sc2cc(N4C(=O)/C(=C/C(=O)/C=C/c5ccccc5)N=C4c4ccccc4)ccc2N3)C1=O)/C=C/c1ccccc1	67.8 µM	> 100 µM	> 100 µM	> 100 µM	43.6 µM	> 100 µM	> 100 µM	33.8 µM	> 100 µM	> 100 µM		
COC(=O)c1nc2c(C)c(O)c(O)c([C@H](C)CCC=C(C)C)c2o1	39 µM	41.5 µM	> 100 µM	> 100 µM	> 100 µM	> 100 µM	> 100 µM	> 100 µM	> 100 µM	> 100 µM	35.7 µM	
COCOc1cc(OC)ccc1C=O		> 100 µM	> 100 µM	> 100 µM	63.8 µM	> 100 µM	> 100 µM	> 100 µM	> 100 µM	> 100 µM	61.9 µM	23.7 µM
COC(=O)CP1(=O)OC2C(C3CCC2(C)C3(C)C)N1c1cc(C(F)(F)F)cc(C(F)(F)F)c1 (stereo not given)	> 100 µM	40.7 µM	97.5 µM	59 µM	34.4 µM	> 100 µM	> 100 µM	80.5 µM	71 µM	75.2 µM	45.8 µM	
CC1(C)COC(c2cccc(C3=NC(C)(C)CO3)c2)=N1		> 100 µM	> 100 µM	> 100 µM		> 100 µM	> 100 µM		> 100 µM	> 100 µM	> 100 µM	
CC1(C)OC1CC/C(=C/CBr)CBr (stereo not given)	47.9 µM	33 µM		57.9 µM	33.7 µM		31.5 µM	48.5 µM		32.5 µM	32.2 µM	29.3 µM
Cn1c2ccccc2n2c(=O)c(-c3ccc(O)cc3)nnc12	> 100 µM	> 100 µM	> 100 µM	> 100 µM		> 100 µM	> 100 µM		> 100 µM	> 100 µM	> 100 µM	
CCC(=O)O[C@@H]1C2C(OC(C)=O)C34COC(C)([C@@H]3C3C(C[C@]3(C)OC(C)=O)[C@@H](OC(=O)c3ccccc3)C4=O)[C@H](OC(C)=O)[C@@]2(OC(C)=O)C[C@@H]1C (stereo not given in full)		> 100 µM	29.5 µM	> 100 µM	82.7 µM	> 100 µM	> 100 µM	83.1 µM		46 µM	47.5 µM	
O=c1[nH]c2ccc(CC(=S)N3CCN(c4ccccc4)CC3)cc2s1	> 100 µM	> 100 µM	> 100 µM	> 100 µM	> 100 µM	82 µM	> 100 µM	44.9 µM		> 100 µM	> 100 µM	> 100 µM
CC(=O)OC(C)(C)C1CCC(C)(C(O)COc2ccc(CCNC(=O)c3ccccc3)cc2)O1 (stereo not given)		> 100 µM	> 100 µM	42.5 µM	> 100 µM	> 100 µM	> 100 µM	> 100 µM		> 100 µM	> 100 µM	
CCOC(=O)Cc1csc(/N=C\c2c(O)c3ccccc3oc2=O)n1		> 100 µM	> 100 µM	42.7 µM	77.1 µM	> 100 µM	> 100 µM	> 100 µM		> 100 µM	56.7 µM	
CC(=O)c1nc2ccccc2n1CC(=O)c1ccc([N+](=O)[O-])cc1	> 100 µM	25.1 µM	> 100 µM	84.5 µM	35.4 µM	21 µM	> 100 µM	> 100 µM	> 100 µM	> 100 µM	> 100 µM	
CC(=O)OCCOCNC(=S)N/N=C(\C)c1ccco1	> 100 µM	> 100 µM	> 100 µM		> 100 µM	> 100 µM	> 100 µM	> 100 µM		> 100 µM	> 100 µM	
CCOC(=O)[C@H]1Nc2ccc(O)cc2C2c3ccccc3CC21 (stereo not given in full)	> 100 µM	> 100 µM	> 100 µM	> 100 µM	91.8 µM	> 100 µM	98 µM			> 100 µM	> 100 µM	
COc1cc(/C=C\c2ccc(SC)cc2)cc(OC)c1OC	> 54.1 µM	> 26.3 µM	29.4 µM	28.9 µM	57.8 µM	> 41 µM	> 100 µM	1.75 µM	> 100 µM	> 100 µM	0.0364 µM	
CC(=O)C1=CC=C/C1=N\Nc1ccccc1		17.5 µM	19.2 µM	29.6 µM	9.57 µM	64.4 µM	27 µM	30.7 µM	18.3 µM	18.6 µM	8.64 µM	19.2 µM
CC(C)(C)[C@@H]1NC(=O)CN1C(=O)OCc1ccccc1	> 100 µM	> 100 µM	> 100 µM	> 100 µM		> 100 µM	> 100 µM	> 100 µM	> 100 µM	> 100 µM	> 100 µM	
CC(=O)OCc1ccc(-c2nc(C#N)c(N)o2)o1		> 10 µM	> 10 µM	> 10 µM		> 10 µM	> 10 µM	> 10 µM	> 10 µM	> 10 µM	> 10 µM	> 10 µM
Cc1cccc(Nc2cn(CCOc3ccccc3)c(=O)[nH]c2=O)c1	> 100 µM	> 100 µM	> 100 µM	> 100 µM	52.8 µM		> 100 µM					> 100 µM
CCCCc1ccc(N2C(=O)c3cc(C)cnc3S2(=O)=O)cc1		> 100 µM	> 100 µM	> 100 µM	> 100 µM	> 100 µM	> 100 µM	> 100 µM	> 100 µM			> 100 µM
CC(C)(C)NNc1c([N+](=O)[O-])cnn(-c2ccccc2)c1=O	> 100 µM	5.63 µM	10.1 µM	4.91 µM	5.54 µM	4.74 µM	5.79 µM	16 µM	4.36 µM	36.8 µM	27.1 µM	
